Reference: patent publication US6737383B1, “Herbicidal oxadiazolidines” (priority 1999, dated 2004)

Legend:
[1] = tested on: bedstraw; assay: Test B pre/postemergence bedstraw; format: in vivo, Galium aparine
Procedure, shortened: (§1)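 Test chemicals in a non-phytotoxic solvent mixture with surfactant were sprayed preemergence onto planted seeds and postemergence onto plants 2 to 18 cm tall (1- to 4-leaf stage). After twelve to sixteen days in a greenhouse, injury was visually rated against untreated controls from 0 (no effect) to 10 (complete control).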

[2] = tested on: blackgrass; assay: Test B pre/postemergence blackgrass; format: in vivo, Alopecurus myosuroides
Procedure, shortened: as §1

[3] = tested on: surinam grass; assay: Test B pre/postemergence surinam grass; format: in vivo, Brachiaria decumbens
Procedure, shortened: as §1

[4] = tested on: cocklebur; assay: Test B pre/postemergence cocklebur; format: in vivo, Xanthium strumarium
Procedure, shortened: as §1

[5] = tested on: corn; assay: Test B pre/postemergence corn; format: in vivo, Zea mays
Procedure, shortened: as §1

[6] = tested on: crabgrass; assay: Test B pre/postemergence crabgrass; format: in vivo, Digitaria sanguinalis
Procedure, shortened: as §1

[7] = tested on: giant foxtail; assay: Test B pre/postemergence giant foxtail; format: in vivo, Setaria faberii
Procedure, shortened: as §1

[8] = tested on: morningglory; assay: Test B pre/postemergence morningglory; format: in vivo, Ipomoea hederacea
Procedure, shortened: as §1

[9] = tested on: pigweed; assay: Test B pre/postemergence pigweed; format: in vivo, Amaranthus retroflexus
Procedure, shortened: as §1

[10] = tested on: rape; assay: Test B pre/postemergence rape; format: in vivo, Brassica napus
Procedure, shortened: as §1

[11] = tested on: soybean; assay: Test B pre/postemergence soybean; format: in vivo, Glycine max
Procedure, shortened: as §1

[12] = tested on: sugar beet; assay: Test B pre/postemergence sugar beet; format: in vivo, Beta vulgaris
Procedure, shortened: as §1

[13] = tested on: velvetleaf; assay: Test B pre/postemergence velvetleaf; format: in vivo, Abutilon theophrasti
Procedure, shortened: as §1

[14] = tested on: wheat; assay: Test B pre/postemergence wheat; format: in vivo, Triticum aestivum
Procedure, shortened: as §1

[15] = tested on: wild oat; assay: Test B pre/postemergence wild oat; format: in vivo, Avena fatua
Procedure, shortened: as §1

[16] = tested on: purple nutsedge; assay: Test B pre/postemergence purple nutsedge; format: in vivo, Cyperus rotundus
Procedure, shortened: as §1

[17] = tested on: smallflower flatsedge; assay: Test B flood test smallflower flatsedge; format: in vivo, Cyperus difformis
Protocol: (§2) At the same time, these crop and weed species were also treated with postemergence applications of test chemicals formulated in the same manner. Plants ranged in height from 2 to 18 cm (1- to 4-leaf stage) for postemergence treatments. Plant species in the flood test consisted of rice (Oryza sativa), smallflower flatsedge (Cyperus difformis), duck salad (Heteranthera limosa) and bamyardgrass (Echinochloa crus-galli) grown to the 2-leaf stage for testing. Treated plants and controls were maintained in a greenhouse for twelve to sixteen days, after which all species were compared to controls and visually evaluated. Plant response ratings, summarized in Table B, are based on a scale of 0 to 10 where 0 is no effect and 10 is complete control. A dash (−) response means no test result.

[18] = tested on: duck salad; assay: Test B flood test duck salad; format: in vivo, Heteranthera limosa
Protocol: as §2

[19] = tested on: bamyardgrass; assay: Test B flood test barnyardgrass; format: in vivo, Echinochloa crus-galli
Protocol: as §2

[20] = Postemergence, Rate 62 g/ha, scale of 0 to 10, 0 is no effect, 10 is complete control
[21] = Postemergence, Rate 125 g/ha, scale 0 to 10, 0 is no effect, 10 is complete control
[22] = Postemergence, Rate 500 g/ha, scale 0 to 10, 0 is no effect, 10 is complete control
[23] = Preemergence, Rate 62 g/ha, scale of 0 to 10 where 0 is no effect and 10 is complete control
[24] = Preemergence, Rate 125 g/ha, scale 0 to 10, 0 is no effect, 10 is complete control
[25] = Rate 250 g/ha, Postemergence, scale of 0 to 10 where 0 is no effect and 10 is complete control
[26] = Preemergence, Rate 500 g/ha, scale of 0 to 10 where 0 is no effect and 10 is complete control
[27] = Rate 62 g/ha, flood test species, Pre-emergence, visual evaluation after twelve to sixteen days
[28] = Rate 125 g/ha, under heading Pre-emergence, flood test species, visual evaluation after twelve to sixteen days
[29] = Rate 250 g/ha, Pre-emergence (flood test species), scale 0 to 10, 0 is no effect, 10 is complete control
[30] = Rate 500 g/ha, Pre-emergence section of Table B, 0 to 10 scale (0 no effect, 10 complete control)

Structure (SMILES): CCCCCn1c(=O)on(C(=O)N(c2ccc(Cl)cc2)C(C)C)c1=O [Compound 528]
- Bedstraw plant response rating [1, 20]: 0
- Bedstraw plant response rating [1, 21]: 0
- Plant response rating, Bedstraw [1, 22]: 8
- Plant response rating, Bedstraw [1, 23]: 0
- Bedstraw plant response rating [1, 24]: 0
- Bedstraw plant response rating (0 to 10 scale) ([1]; Preemergence, Rate 250 g/ha): 0
- Plant response rating, Bedstraw [1, 25]: 0
- Blackgrass plant response rating [2, 20]: 0
- Blackgrass plant response rating [2, 21]: 0
- Plant response rating, Blackgrass [2, 22]: 5
- Plant response rating, Blackgrass [2, 23]: 0
- Blackgrass plant response rating [2, 24]: 0
- Blackgrass plant response rating (0 to 10 scale) ([2]; Preemergence, Rate 250 g/ha): 0
- Plant response rating, Blackgrass [2, 25]: 0
- B. signalgrass plant response rating [3, 20]: 0
- B. signalgrass plant response rating [3, 21]: 0
- Plant response rating, B. signalgrass [3, 22]: 0
- Plant response rating, B. signalgrass [3, 23]: 0
- B. signalgrass plant response rating [3, 24]: 0
- B. signalgrass plant response rating (0 to 10 scale, 0 is no effect, 10 is complete control) ([3]; Preemergence, Rate 250 g/ha): 0
- Plant response rating, B. signalgrass [3, 25]: 0
- Cocklebur plant response rating [4, 20]: 0
- Cocklebur plant response rating [4, 21]: 0
- Plant response rating, Cocklebur [4, 22]: 3
- Plant response rating, Cocklebur [4, 23]: 0
- Cocklebur plant response rating [4, 24]: 0
- Cocklebur plant response rating (0 to 10 scale) ([4]; Preemergence, Rate 250 g/ha): 0
- Cocklebur plant response rating [4, 26]: 0
- Plant response rating, Cocklebur [4, 25]: 2
- Corn plant response rating [5, 20]: 0
- Corn plant response rating [5, 21]: 0
- Plant response rating, Corn [5, 22]: 0
- Plant response rating, Corn [5, 23]: 0
- Corn plant response rating [5, 24]: 0
- Corn plant response rating (0 to 10 scale) ([5]; Preemergence, Rate 250 g/ha): 0
- Corn plant response rating [5, 26]: 0
- Plant response rating, Corn [5, 25]: 0
- Crabgrass plant response rating [6, 20]: 3
- Crabgrass plant response rating [6, 21]: 9
- Plant response rating, Crabgrass [6, 22]: 10
- Plant response rating, Crabgrass [6, 23]: 7
- Crabgrass plant response rating [6, 24]: 9
- Crabgrass plant response rating (0 to 10 scale) ([6]; Preemergence, Rate 250 g/ha): 10
- Crabgrass plant response rating [6, 26]: 10
- Plant response rating, Crabgrass [6, 25]: 9
- Giant foxtail plant response rating [7, 20]: 0
- Giant foxtail plant response rating [7, 21]: 3
- Plant response rating, Giant foxtail [7, 22]: 9
- Plant response rating, Giant foxtail [7, 23]: 9
- Giant foxtail plant response rating [7, 24]: 10
- Giant foxtail plant response rating (0 to 10 scale) ([7]; Preemergence, Rate 250 g/ha): 10
- Giant foxtail plant response rating [7, 26]: 10
- Plant response rating, Giant foxtail [7, 25]: 3
- Morningglory plant response rating [8, 20]: 2
- Morningglory plant response rating [8, 21]: 3
- Plant response rating, Morningglory [8, 22]: 5
- Plant response rating, Morningglory [8, 23]: 0
- Morningglory plant response rating [8, 24]: 0
- Morningglory plant response rating (0 to 10 scale) ([8]; Preemergence, Rate 250 g/ha): 0
- Morningglory plant response rating [8, 26]: 3
- Plant response rating, Morningglory [8, 25]: 5
- Redroot pigweed plant response rating [9, 20]: 0
- Redroot pigweed plant response rating [9, 21]: 0
- Plant response rating, Redroot pigweed [9, 22]: 0
- Plant response rating, Redroot pigweed [9, 23]: 0
- Redroot pigweed plant response rating [9, 24]: 0
- Redroot pigweed plant response rating (0 to 10 scale) ([9]; Preemergence, Rate 250 g/ha): 0
- Plant response rating, Redroot pigweed [9, 25]: 0
- Rape plant response rating [10, 20]: 0
- Rape plant response rating [10, 21]: 0
- Plant response rating, Rape [10, 22]: 3
- Plant response rating, Rape [10, 23]: 0
- Rape plant response rating [10, 24]: 0
- Rape plant response rating (0 to 10 scale) ([10]; Preemergence, Rate 250 g/ha): 0
- Plant response rating, Rape [10, 25]: 3
- Soybean plant response rating [11, 20]: 3
- Soybean plant response rating [11, 21]: 3
- Plant response rating, Soybean [11, 22]: 5
- Plant response rating, Soybean [11, 23]: 0
- Soybean plant response rating [11, 24]: 0
- Soybean plant response rating (0 to 10 scale) ([11]; Preemergence, Rate 250 g/ha): 0
- Soybean plant response rating [11, 26]: 0
- Plant response rating, Soybean [11, 25]: 5
- Sugarbeets plant response rating [12, 20]: 0
- Sugarbeets plant response rating [12, 21]: 0
- Plant response rating, Sugarbeets [12, 22]: 2
- Plant response rating, Sugarbeets [12, 23]: 0
- Sugarbeets plant response rating [12, 24]: 0
- Sugarbeets plant response rating (0 to 10 scale) ([12]; Preemergence, Rate 250 g/ha): 0
- Plant response rating, Sugarbeets [12, 25]: 0
- Velvetleaf plant response rating [13, 20]: 0
- Velvetleaf plant response rating [13, 21]: 4
- Plant response rating, Velvetleaf [13, 22]: 5
- Plant response rating, Velvetleaf [13, 23]: 0
- Velvetleaf plant response rating [13, 24]: 0
- Velvetleaf plant response rating (0 to 10 scale) ([13]; Preemergence, Rate 250 g/ha): 0
- Velvetleaf plant response rating [13, 26]: 0
- Plant response rating, Velvetleaf [13, 25]: 4
- Wheat plant response rating [14, 20]: 0
- Wheat plant response rating [14, 21]: 0
- Plant response rating, Wheat [14, 22]: 0
- Plant response rating, Wheat [14, 23]: 0
- Wheat plant response rating [14, 24]: 0
- Wheat plant response rating (0 to 10 scale) ([14]; Preemergence, Rate 250 g/ha): 0
- Plant response rating, Wheat [14, 25]: 0
- Wild oats plant response rating [15, 20]: 0
- Wild oats plant response rating [15, 21]: 0
- Plant response rating, Wild oats [15, 22]: 0
- Plant response rating, Wild oats [15, 23]: 0
- Wild oats plant response rating [15, 24]: 0
- Wild oats plant response rating (0 to 10 scale) ([15]; Preemergence, Rate 250 g/ha): 0
- Plant response rating, Wild oats [15, 25]: 0
- Nutsedge plant response rating [16, 21]: 0
- Plant response rating, Nutsedge [16, 22]: 6
- Plant response rating, Nutsedge [16, 23]: 0
- Nutsedge plant response rating [16, 24]: 0
- Nutsedge plant response rating (0 to 10 scale) ([16]; Preemergence, Rate 250 g/ha): 0
- Nutsedge plant response rating [16, 26]: 0
- Plant response rating, Nutsedge [16, 25]: 0
- Plant response rating, S. Flatsedge (0 to 10 scale, 0 is no effect, 10 is complete control) [17, 27]: 0
- S. Flatsedge plant response rating (0 to 10 scale, 0 is no effect, 10 is complete control) [17, 28]: 0
- S. Flatsedge plant response rating [17, 29]: 0
- S. Flatsedge plant response rating [17, 30]: 0
- Plant response rating, Ducksalad (0 to 10 scale, 0 is no effect, 10 is complete control) [18, 27]: 0
- Ducksalad plant response rating (0 to 10 scale, 0 is no effect, 10 is complete control) [18, 28]: 0
- Ducksalad plant response rating [18, 29]: 0
- Ducksalad plant response rating [18, 30]: 0
- Plant response rating, Barnyardgrass (0 to 10 scale, 0 is no effect, 10 is complete control) [19, 27]: 0
- Barnyardgrass plant response rating (0 to 10 scale, 0 is no effect, 10 is complete control) [19, 28]: 0
- Barnyardgrass plant response rating [19, 29]: 0
- Barnyardgrass plant response rating [19, 30]: 0
